Patent US6582713B2, “Compositions and methods for promoting wound healing” (Univ. of Colorado - Colorado Springs, priority 2000, dated 2003)
“And” between values parts separate entries of the source, which are not always exact repeats. Equal values may be shown once. Marks after values point to notes of the source that are not given here.

Key:
unsealed wound = experiment: Effect of three day insulin treatment on unsealed wound in vivo; design: species or system mice; details: 100 micro liters applied to unsealed incision, photographs daily for one week
Description: Six mice were anesthetized with avetin Q 15-18 micro liters per gram body weight. An area on the back of the neck was swabbed with alcohol and shaved. A single vertical incision was made with scissors. One hundred micro liters of insulin was applied to three mice and 100 micro liters of water was applied to the other three. Photographs of the wounds were taken on a daily basis for one week.

[1] = Blood glucose level after treatment injected into incision sealed with cyanoacrylate; format: in vivo, mice; details: for Blood Glucose Level: individual mice
Procedure: Twelve mice were used in the study. Each mouses' blood glucose level was tested at the start of the study. The mice were then weighted and anesthetized. The back of the neck was shaved and a single incision was made. The incision was then sealed with cyanoacrylate polymer which was applied and allowed to set for 1½ minutes. The treatment (glucose, water, insulin, or insulin plus glucose) as described above were injected into the incision. […] On day 1, blood glucose was again measured and the wound was photographed. This was repeated on days 3, 5, and 7. Mouse numbers 1, 2, and 3 received glucose treatment. Mouse numbers 4, 5, and 6 received water (control). Mouse numbers 7, 8, and 9 received insulin plus glucose. Mouse numbers 10, 11, and 12 received insulin.

With insulin the “wound healing compared with water” value (unsealed wound) was “More complete wound healing”, the “Blood Glucose Level” value ([1]; 0 Hr (start of study, before treatment)) was 89 mg/dL and 104 mg/dL and 118 mg/dL and the “Blood Glucose Level” value ([1]; 0.5 Hr, incision sealed with cyanoacrylate) was 58 mg/dL and 36 mg/dL and 46 mg/dL. The “Blood Glucose Level” value ([1]; 3.0 Hr., incision sealed with cyanoacrylate) was <25 mg/dL, the “Blood Glucose Level” value ([1]; 21 Hr., incision sealed with cyanoacrylate) was <25 mg/dL (2×) and 113 mg/dL and the “Blood Glucose Level” value ([1]; 69 Hr., incision sealed with cyanoacrylate) was <25* mg/dL and 109 mg/dL. The death of mouse ([1]; by 69 Hr., individual mouse) was “Died” and the “effect on levels of blood glucose compared with control water treatment” value ([1]; summary of Table 1) was “dramatic effects”.
